The results in this text go back to publication PMC4167909 (Analytical biochemistry, 2014).

Assay [1] deals with T1, OXA-24/40 (Acinetobacter baumannii, UniProt Q8RLA6). Nature of the assay: kinetic competition with ampicillin as reporter substrate. It counts as biochemical.
The target of assay [2] is OXA-24/40 (Acinetobacter baumannii, UniProt Q8RLA6, V130D). Nature of the assay: SDS-PAGE fluorescent acyl-enzyme detection, single-turnover conditions. It counts as binding.
The target of assay [3] is T1, OXA-24/40. In words: competitive inhibition of ampicillin hydrolysis. The class given is biochemical.

On to `C[C@@H](O)[C@H]1C(=O)N2C(C(=O)O)=C(S[C@@H]3CN[C@H](C(=O)N(C)C)C3)[C@H](C)[C@H]12` [meropenem], for which the Ki in assay [1] is 18 nM.
As to `C[C@@H](O)[C@H]1C(=O)N2C(C(=O)O)=C(S[C@H]3C[C@@H](C(=O)N(C)C)N(C(=S)Nc4ccc5c(c4)C(=O)OC54c5ccc(O)cc5Oc5cc(O)ccc54)C3)[C@H](C)[C@H]12` [FM, fluorescein-meropenem], the “SDS-PAGE fluorescent acyl-enzyme detection, single-turnover conditions” value in assay [2] was “All Val130 substitutions showed some degree of fluorescence labeling, but the Val130Asp, Val130Thr and Val130Asn substitutions most severely reduced deacylation”. Moreover, the Ki in assay [3] was determined as 43 nM.

Broadly, the Ki is a measure of affinity in units of concentration, obtained from inhibition or displacement. The low end stands for a stronger hold on the target, the high end for a looser hold on the target.
